# In ChEMBL document CHEMBL3508693 (2016):
# Key:
# [1] = Excretion (0-72h) of aliskiren in faeces following oral administration of [14C] aliskiren hemifumarate at 3 mg.Kg-1 level in marmoset; format: ADME, organism-based, Callithrix jacchus, Feces; conditions: in vivo
# [2] = molecular target: CYP2E1 (Homo sapiens, UniProt P05181); assay: Inhibition of CYP2E1 in human liver microsomes from 10 healthy donors at 200 uM aliskiren (SPP100); format: ADME, Microsome; set-up: conc 200 uM; conditions: probe chlorzoxazone (6-hydroxylation)
# [3] = Absorption (0-168h) of total radioactivity following single oral administration of [14C] aliskiren hemifumarate at 3 mg.Kg-1 level in marmoset; format: ADME, organism-based, Callithrix jacchus, Plasma; conditions: in vivo
# [4] = Cmax (0-168h) of total radioactivity following single oral administration of [14C] aliskiren hemifumarate at 3 mg.Kg-1 level in marmoset; format: ADME, organism-based, Callithrix jacchus, Plasma; conditions: in vivo
# [5] = Excretion (0-96h) of 14C-radioactivity in faeces following single oral dose of 300 mg [14C]SPP100 studied in healthy men; format: ADME, organism-based, Feces; conditions: human, in vivo, at 300 mg
# [6] = AUC (0-96h) of total radioactivity following oral administration of [14C] aliskiren hemifumarate at 100 mg.Kg-1 level in rat; format: ADME, organism-based, Albino HAN:WIST, Plasma; conditions: in vivo
# [7] = Tmax (0-168h) of total radioactivity following single oral administration of [14C] aliskiren hemifumarate at 3 mg.Kg-1 level in marmoset; format: ADME, organism-based, Callithrix jacchus, Plasma; conditions: in vivo
# [8] = Excretion (0-168h) of radioactivity in urine following intravenous administration of [14C] aliskiren hemifumarate at 1 mg.Kg-1 level in marmoset; format: ADME, organism-based, Callithrix jacchus; conditions: in vivo
# [9] = Concentration of radioactivity in the kidney medulla following repeated oral administration of [14C] aliskiren hemifumarate at 100 mg.Kg-1 level studied at 24h after 3rd dose in rat; format: ADME, organism-based, Albino HAN:WIST, Renal medulla; conditions: in vivo
# [10] = Concentration of radioactivity in the kidney medulla following repeated oral administration of [14C] aliskiren hemifumarate at 100 mg.Kg-1 level studied at 24h after 10th dose in rat; format: ADME, organism-based, Albino HAN:WIST, Renal medulla; conditions: in vivo
# [11] = Mean excretion of radioactivity (48-72h) in urine and faeces following single oral dose of 100 mg.Kg-1 [14C] aliskiren hemifumarate in rat; format: ADME, organism-based, Albino HAN:WIST, Urine/Feces; conditions: in vivo
# [12] = Cmax normalised (0-168h) of total radioactivity following single intravenous administration of [14C] aliskiren hemifumarate at 1 mg.Kg-1 level in marmoset; format: ADME, organism-based, Callithrix jacchus, Plasma; conditions: in vivo
# [13] = Mean excretion of radioactivity (24-48h) in urine and faeces following single oral dose of 500 mg.Kg-1 [14C] aliskiren hemifumarate in mouse; format: ADME, organism-based, TgRasH2, Urine/Feces; conditions: in vivo
# [14] = Concentration of radioactivity in the kidney medulla following repeated oral administration of [14C] aliskiren hemifumarate at 100 mg.Kg-1 level studied at 2h after 3rd dose in rat; format: ADME, organism-based, Albino HAN:WIST, Renal medulla; conditions: in vivo
# [15] = Excretion (24h) of radioactivity in faeces following intravenous administration of [14C] aliskiren hemifumarate at 10 mg.Kg-1 level in rat; format: ADME, organism-based, Lister-Hooded, Feces; conditions: in vivo
# [16] = Effect of single oral dose of 300 mg [14C]SPP100 on ECG values studied in healthy men; format: toxicity, organism-based; conditions: human, in vivo
# [17] = Excretion (0-96h) of 14C-radioactivity in urine following single oral dose of 300 mg [14C]SPP100 studied in healthy men; format: ADME, organism-based; conditions: human, in vivo, at 300 mg
# [18] = Bioavailability (0-168h) of unlabeled aliskiren hemifumarate following single oral administration of aliskiren hemifumarate at 3 mg.Kg-1 level in marmoset; format: ADME, organism-based, Callithrix jacchus; conditions: plasma
# [19] = Blood clearance (0-168h) of unlabeled aliskiren hemifumarate following single intravenous administration of aliskiren hemifumarate at 1 mg.Kg-1 level in marmoset; format: ADME, organism-based, Callithrix jacchus; conditions: in vivo
# [20] = Cmax of aliskiren hemifumarate following 2 week oral dosing of aliskiren hemifumarate at 10 mg.Kg-1 level studied on day 1 in male Callithrix jacchus; format: ADME, organism-based; conditions: marmoset, plasma
# [21] = Effect of 2 week oral dosing of aliskiren hemifumarate at 50 mg.Kg-1 level on blood urea nitrogen level in male Callithrix jacchus; format: toxicity, organism-based, Plasma; conditions: marmoset, 336 h
# [22] = Tmax of aliskiren hemifumarate following 8 day once-daily dosing of SPP100B oral solution at 40 mg level studied on day 8 in men; format: ADME, organism-based; conditions: male, human, plasma
# [23] = AUC of aliskiren hemifumarate following single dosing of SPP100B oral solution at 640 mg level studied on day 1 in men; format: ADME, organism-based; conditions: male, human, plasma
# [24] = Effect of 2 week oral dosing of aliskiren hemifumarate at 100 mg.Kg-1 level on hematological parameter values in female Callithrix jacchus; format: toxicity, organism-based, Plasma; conditions: marmoset, in vivo, 336 h
# [25] = Plasma clearance (0-96h) of unlabeled aliskiren hemifumarate following intravenous administration of aliskiren hemifumarate at 10 mg.Kg-1 level in rat; format: ADME, organism-based, Albino HAN:WIST; conditions: in vivo
# [26] = AUCspec of aliskiren hemifumarate following 2 week oral dosing of aliskiren hemifumarate at 50 mg.Kg-1 level studied on day 1 in male Callithrix jacchus; format: ADME, organism-based, Plasma; conditions: marmoset, in vivo, 336 h
# [27] = AUC of unlabeled aliskiren hemifumarate following single intravenous dose of aliskiren hemifumarate at 10 mg.Kg-1 level in mouse; format: ADME, organism-based; conditions: TgRasH2, mouse, plasma
# [28] = AUC (0-24h)/dose of aliskiren hemifumarate following 4 week oral dietary dosing of aliskiren hemifumarate at 2000 mg.Kg-1 level in female mouse; format: ADME, organism-based, CB6F1-TGrasH2, Plasma; conditions: in vivo
# [29] = Tmax of aliskiren hemifumarate following 4 week oral dietary dosing of aliskiren hemifumarate at 1500 mg.Kg-1 level in female mouse; format: ADME, organism-based; conditions: CB6F1-TGrasH2, mouse, in vivo
# [30] = Cmax/dose of aliskiren hemifumarate following 4 week oral dietary dosing of aliskiren hemifumarate at 1000 mg.Kg-1 level in female mouse; format: ADME, organism-based, CB6F1-TGrasH2; conditions: in vivo, 672 h
# [31] = Cmax/dose (0-96h) of unlabeled aliskiren hemifumarate following oral administration of aliskiren hemifumarate at 100 mg.Kg-1 level in rat; format: ADME, organism-based, Albino HAN:WIST, Plasma; conditions: in vivo
# [32] = Effect of 4 week oral dietary dosing of aliskiren hemifumarate at 2000 mg.Kg-1 level on ovarian follicular atresia in female mouse; format: toxicity, organism-based, CB6F1-TGrasH2, Ovarian follicle; conditions: in vivo, 672 h
# [33] = Effect of 2 week oral dosing of aliskiren hemifumarate at 50 mg.Kg-1 level on blood urea nitrogen level in female Callithrix jacchus; format: toxicity, organism-based, Plasma; conditions: marmoset, 336 h
# [34] = Absorption (0-96h) of unlabeled aliskiren hemifumarate following oral administration of aliskiren hemifumarate at 100 mg.Kg-1 level in rat; format: ADME, organism-based; conditions: Albino HAN:WIST, plasma, read-out: Absorption
# [35] = AUC (0-24h) of aliskiren hemifumarate following 4 week oral dietary dosing of aliskiren hemifumarate at 1500 mg.Kg-1 level in female mouse; format: ADME, organism-based; conditions: CB6F1-TGrasH2, mouse, plasma
# [36] = Cmax normalised (0-168h) of unlabeled aliskiren hemifumarate following single intravenous administration of aliskiren hemifumarate at 1 mg.Kg-1 level in marmoset; format: ADME, organism-based, Callithrix jacchus, Plasma; conditions: in vivo
# [37] = Cmax of aliskiren hemifumarate following 2 week oral dosing of aliskiren hemifumarate at 50 mg.Kg-1 level studied on day 1 in male Callithrix jacchus; format: ADME, organism-based; conditions: marmoset, plasma
# [38] = Cmax/dose of aliskiren hemifumarate following 4 week oral dietary dosing of aliskiren hemifumarate at 2000 mg.Kg-1 level in male mouse; format: ADME, organism-based, CB6F1-TGrasH2; conditions: in vivo, 672 h
# [39] = AUC(0-24h) of aliskiren hemifumarate following 2 week oral dosing of aliskiren hemifumarate at 100 mg.Kg-1 level studied on day 1 in female Callithrix jacchus; format: ADME, organism-based; conditions: marmoset, plasma
# [40] = Tmax of aliskiren hemifumarate following 2 week oral dosing of aliskiren hemifumarate at 100 mg.Kg-1 level studied on day 1 in female Callithrix jacchus; format: ADME, organism-based; conditions: marmoset, plasma
# CYP2E1, sequence (P05181 whole entry): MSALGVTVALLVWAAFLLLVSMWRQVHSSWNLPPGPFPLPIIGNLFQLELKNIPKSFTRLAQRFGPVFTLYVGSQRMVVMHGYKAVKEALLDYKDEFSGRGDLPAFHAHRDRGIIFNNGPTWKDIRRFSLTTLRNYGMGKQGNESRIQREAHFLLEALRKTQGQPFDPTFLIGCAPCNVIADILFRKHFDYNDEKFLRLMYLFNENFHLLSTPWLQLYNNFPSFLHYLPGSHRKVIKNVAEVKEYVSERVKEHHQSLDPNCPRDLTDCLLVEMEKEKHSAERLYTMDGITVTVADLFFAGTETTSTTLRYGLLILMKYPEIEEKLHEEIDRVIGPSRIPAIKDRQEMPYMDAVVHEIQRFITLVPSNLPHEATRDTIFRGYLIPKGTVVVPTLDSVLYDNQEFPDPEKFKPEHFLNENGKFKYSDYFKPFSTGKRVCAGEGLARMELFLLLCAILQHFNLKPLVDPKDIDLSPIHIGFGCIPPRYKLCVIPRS
structure (smiles),measurement,setting,value
COCCCOc1cc(C[C@@H](C[C@H](N)[C@@H](O)C[C@H](C(=O)NCC(C)(C)C(N)=O)C(C)C)C(C)C)ccc1OC,Compound recovery,[1],78%
same,inhibition at 200 µM,[2],-12.8%
COCCCOc1cc(C[C@@H](C[C@H](N)[C@@H](O)C[C@H](C(=O)NCC([14CH3])([14CH3])C(N)=O)C(C)C)C(C)C)ccc1OC.O=C(O)/C=C/C(=O)O,Absorption,[3],25%
same,Cmax,[4],359 nM
same,Radiolabel recovery,[5],88.17%
same,AUC,[6],5.38 µM·h
same,AUC,"[6]; iv, 10 mg/kg",8.08 µM·h
same,Tmax,[7],2 h
same,Radiolabel recovery,[8],4.04%
same,Radiolabel recovery,[9],OUTCOME = Detected
same,Radiolabel recovery,[10],OUTCOME = Detected
same,Radiolabel recovery,[11],16.3%
same,Cmax normalised,[12],11.42 (umol/L)/(mg/kg)
same,Radiolabel recovery,[13],10.51%
same,Radiolabel recovery,[14],OUTCOME = Detected
same,Radiolabel recovery,[15],66%
same,ECG,[16],OUTCOME = ECG findings were all considered as normal
same,Radiolabel recovery,[17],0.57%
COCCCOc1cc(C[C@@H](C[C@H](N)[C@@H](O)C[C@H](C(=O)NCC(C)(C)C(N)=O)C(C)C)C(C)C)ccc1OC.COCCCOc1cc(C[C@@H](C[C@H](N)[C@@H](O)C[C@H](C(=O)NCC(C)(C)C(N)=O)C(C)C)C(C)C)ccc1OC.O=C(O)/C=C/C(=O)O [ALISKIREN FUMARATE],bioavailability,[18],3%
same,Blood clearance,[19],0.055 L·h/kg
same,Cmax,[20],3960 ng/mL
same,BUN_CHANGE_BY,[21],105%
same,Tmax,[22],2.1 h
same,AUC,[23],1190 ng·h/mL
same,Change in hematology,[24],OUTCOME = Hematological parameter values did not differ from control values. No animals died during the study.
same,Plasma clearance,[25],1.2 L·h/kg
same,AUC normalised,[26],1.16 ((ug.h.ml-1)/(mg/kg)
same,AUC,[27],9.03 µM·h
same,AUC normalised,[28],5.88 ((ng/mL).hours)/(mg/kg/day)
same,Tmax,[29],0.5 h
same,Cmax normalised,[30],0.167 (ng/mL)/(mg/kg/day)
same,Cmax normalised,[31],0.0027 (umol/L)/(mg/kg)
same,Change in ovarian follicular atresia,[32],OUTCOME = Increased. No animals died during the study.
same,BUN_CHANGE_BY,[33],274%
same,Fa,[34],≥ 3.4%
same,AUC(0-t) at 24 h,[35],5470 ng·h/mL
same,Cmax normalised,[36],14.24 (umol/L)/(mg/kg)
same,Cmax,[37],6290 ng/mL
same,Cmax normalised,[38],0.22 (ng/mL)/(mg/kg/day)
same,AUC(0-t) at 24 h,[39],84000 ng·h/mL
same,Tmax,[40],1 h
